Tests used:
MNK1 = biological target: T1, MNK1 (Homo sapiens, UniProt Q9BUB5); assay: MNK inhibition assay (Z-Lyte kinase assay, Ser/Thr 7 peptide); format: biochemical; settings: for IC50: recombinant GST-MNK1, 3 hours at 31° C.
T1 construct: purchased Life Technologies or Carna Biosciences PV6023 or 02-145; host or cells: baculovirus infected insect cells
Procedure, shortened: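 Recombinant GST-MNK1 from baculovirus-infected insect cells, Z-Lyte Ser/Thr 7 peptide, enzyme set for ~30% phosphorylation in buffer-only wells; 3 hours at 31° C. Compounds at 50–10000 nM (potent ones down to 0.5 nM), at least duplicate. IC50 from % substrate phosphorylation versus buffer-only wells, fluorescence read-out.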

[1] = system: human pancreatic cancer cell line MiaPaCa2 (ATCC CRL-1420); assay: Cell growth assay (CellTiterGlo, 72 hours); format: cell-based; settings: for IC50: MIA PaCa-2, MiaPaCa2 cells, 72 hours, read-out: IC50 MiaPaCa; for inhibition at 50 µM: MIA PaCa-2, at 50 μM; for inhibition at 50 µM / inhibition at 100 µM: read-out: Inhibition of MiaPaCa growth at indicated concentration; for inhibition at 100 µM: MIA PaCa-2, at 100 μM
Procedure, shortened: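 MiaPaCa2 cells (10^3/well) seeded in supplemented DMEM overnight, then exposed in quadruplicate to compound at 100 down to 0.1 μM for 72 h at 37° C. Growth read by CellTiterGlo luminescence, medium-only background subtracted, normalised to untreated cells; IC50 = concentration reducing growth to 50%.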

T1 sequence (Q9BUB5 whole entry): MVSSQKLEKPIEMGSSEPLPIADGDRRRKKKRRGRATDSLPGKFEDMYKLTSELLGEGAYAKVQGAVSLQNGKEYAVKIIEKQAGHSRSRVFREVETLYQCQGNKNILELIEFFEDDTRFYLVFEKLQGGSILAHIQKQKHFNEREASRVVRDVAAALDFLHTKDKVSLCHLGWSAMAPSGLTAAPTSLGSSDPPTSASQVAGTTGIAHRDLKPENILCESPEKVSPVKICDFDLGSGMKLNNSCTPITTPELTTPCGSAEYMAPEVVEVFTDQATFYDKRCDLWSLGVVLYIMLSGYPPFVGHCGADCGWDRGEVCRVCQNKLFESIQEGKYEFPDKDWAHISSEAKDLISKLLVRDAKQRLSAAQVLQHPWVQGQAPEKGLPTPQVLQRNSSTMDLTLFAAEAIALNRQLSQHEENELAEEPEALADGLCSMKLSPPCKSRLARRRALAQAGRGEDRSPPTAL

Row | Structure (SMILES) | IC50 (MNK1) [µM] | IC50 [1] [µM] | inhibition at 1 µM (MNK1; at 1 μM, read-out: Inhibition of MNK1 activity at indicated concentration) [%] | inhibition at 50 µM [1] [%] | inhibition at 100 µM [1] [%]
1 | Oc1ccc(-c2cncc3ccc(CN4CCC(O)CC4)cc23)cc1 [Example 23] | 2.36 | 30.6 |  |  | 
2 | Nc1ncc(-c2cccc(F)c2)c2cc(CN3CCC(N)CC3)ccc12 [Example 220] | 1.47 | 4.28 |  |  | 
3 | N[C@@H]1CCN(Cc2ccc3cncc(-c4cc5ccccc5o4)c3c2)C[C@@H]1O [Example 269, (3S,4R/3R,4S)-4-Amino-1-[[4-(benzofuran-2-yl)-6-isoquinolyl]methyl]piperidin-3-ol] | 0.141 | 9.03 |  |  | 
4 | NCc1ccccc1NCc1ccc2cncc(-c3cc4ccccc4o3)c2c1 [Example 51, 2-(Aminomethyl)-N-[[4-(benzofuran-2-yl)-6-isoquinolyl]methyl]aniline] | 4.22 | 6.34 |  |  | 
5 | Nc1cnccc1NCc1ccc2cncc(-c3cc4ccccc4o3)c2c1 [Example 76, N4-[[4-(Benzofuran-2-yl)-6-isoquinolyl]methyl]pyridine-3,4-diamine] | 0.0059 | 4.75 |  |  | 
6 | Nc1ncc(-c2cc3ccccc3o2)c2cc(CN3CCC(N)CC3)cc(Cl)c12 [Example 256, 6-[(4-Amino-1-piperidyl)methyl]-4-(benzofuran-2-yl)-8-chloro-isoquinolin-1-amine] | 0.216 | 1.22 |  |  | 
7 | Cn1cc(-c2cncc3ccc(CN4CCC(N)CC4)cc23)cn1 [Example 203] | 0.624 |  |  | 48 | 
8 | Cn1nccc1OCc1ccc2cncc(-c3cc4ccccc4o3)c2c1 [Example 97, 4-(Benzofuran-2-yl)-6-[(2-methylpyrazol-3-yl)oxymethyl]isoquinoline] | 0.397 | 10.8 |  |  | 
9 | Nc1ncc(-c2cc3ccccc3o2)c2cc(CN3CCNCC3)ccc12 [Example 223] | 1.14 | 3.94 |  |  | 
10 | Cc1c[n+](Cc2ccc3cncc(-c4cc5ccccc5o4)c3c2)ccc1N [Example 57] | 0.0079 | 3.37 |  |  | 
11 | Oc1ccc(-c2cnnc3ccc(CN4CCNCC4)cc23)cc1 [Example 85] | 0.318 |  |  |  | 33
12 | Nc1cc(NCc2ccc3nncc(-c4cc5ccccc5o4)c3c2)ccn1 [Example 278, N4-[[4-(Benzofuran-2-yl)cinnolin-6-yl]methyl]pyridine-2,4-diamine] | 0.043 | 3.57 |  |  | 
13 | Cc1ccc(-c2cncc3ccc(CNc4ccnc5ccccc45)cc23)o1 [Example 209] | 0.056 | 7.5 |  |  | 
14 | NC1CCN(Cc2ccc3cncc(-c4ccoc4)c3c2)CC1 [Example 179] | 0.276 | 4.97 |  |  | 
15 | Nc1ncc(-c2cc3ccccc3o2)c2cc(CN3CCC(N)CC3)ccc12 [Example 153, 6-[(4-Amino-1-piperidyl)methyl]-4-(benzofuran-2-yl)isoquinolin-1-amine] | 0.131 | 3.5 |  |  | 
16 | CN(C)c1cc(NCc2ccc3cncc(-c4cc5ccccc5o4)c3c2)ccn1 [Example 68] | 0.045 | 6.19 |  |  | 

Row | Structure (SMILES) | IC50 (MNK1) [µM] | IC50 [1] [µM] | inhibition at 1 µM (MNK1; at 1 μM, read-out: Inhibition of MNK1 activity at indicated concentration) [%] | inhibition at 50 µM [1] [%] | inhibition at 100 µM [1] [%]
17 | NCc1cccc(Nc2ccc3cncc(-c4cc5ccccc5o4)c3c2)c1 [Example 136] | 0.558 | 20.6 |  |  | 
18 | NCCNCc1ccc2cncc(-c3ccc(O)cc3)c2c1 [Example 24] | 0.926 | 45.5 |  |  | 
19 | CN(CCCN)Cc1ccc2cncc(-c3ccc(O)cc3)c2c1 [Example 36] | 0.099 | 20.2 |  |  | 
20 | NCCCOCc1ccc2c(N)ncc(-c3ccc(Cl)cc3)c2c1 [Example 110] | 0.395 | 11.3 |  |  | 
21 | c1ccc2oc(C3CNNc4ccc(CNc5ccncc5)cc43)cc2c1 (centres unmarked) [Example 277, N-[[4-(Benzofuran-2-yl)-1,2,3,4-tetrahydrocinnolin-6-yl]methyl]pyridin-4-amine] | 0.131 | 5.76 |  |  | 
22 | c1ccc2oc(-c3cncc4ccc(OC5CCNCC5)cc34)cc2c1 [Example 78, 4-(Benzofuran-2-yl)-6-(4-piperidyloxy)isoquinoline] | 0.208 | 3.46 |  |  | 
23 | NC1CCN(Cc2ccc3cncc(-c4ccc(NC(=O)Nc5ccncc5)cc4)c3c2)CC1 [Example 115] | 0.49 |  |  |  | 52
24 | CC(C)(C)c1cc(NC(=O)Nc2ccc(-c3cncc4ccc(CN5CCC(N)CC5)cc34)cc2)no1 [Example 116] | 0.887 | 3.07 |  |  | 
25 | Nc1ncc(-c2ccc(O)cc2)c2cc(CN3CCNCC3)ccc12 [Example 93] | 0.197 |  |  | 27 | 
26 | Nc1cc[n+](Cc2ccc3cncc(-c4ccc(NC(=O)Nc5ccccc5)cc4)c3c2)cc1 [Example 124] | 2.08 | 45.8 |  |  | 
27 | NC1CCN(Cc2ccc3cncc(-c4cc5ccccc5o4)c3c2)CC1(F)F (centres unmarked) [Example 263, 1-[[4-(Benzofuran-2-yl)-6-isoquinolyl]methyl]-3,3-difluoro-piperidin-4-amine] | 0.703 | 9.97 |  |  | 
28 | NCc1ccc(NCc2ccc3cncc(-c4cc5ccccc5o4)c3c2)cc1 [Example 52] | 0.163 | 14.1 |  |  | 
29 | Nc1ncc(-c2ccco2)c2cc(CN3CCC(N)CC3)ccc12 [Example 289] | 0.418 | 10.3 |  |  | 
30 | c1ccc2oc(-c3cncc4ccc(NCc5ccncc5)cc34)cc2c1 [Example 147, 4-(Benzofuran-2-yl)-N-(4-pyridylmethyl)isoquinolin-6-amine] | 0.092 | 7.14 |  |  | 
31 | CN(c1ccc2cncc(-c3cc4ccccc4o3)c2c1)C1CCNCC1 [Example 211] | 0.425 | 5.57 |  |  | 
32 | Nc1ccc2c(ccn2Cc2ccc3cncc(-c4cc5ccccc5o4)c3c2)c1 [Example 192, 1-[[4-(Benzofuran-2-yl)-6-isoquinolyl]methyl]indol-5-amine] | 1.55 | 26 |  |  | 

Second part, led by results:

Row | IC50 (MNK1) [µM] | IC50 [1] [µM] | inhibition at 1 µM (MNK1; at 1 μM, read-out: Inhibition of MNK1 activity at indicated concentration) [%] | Structure (SMILES) | inhibition at 50 µM [1] [%] | inhibition at 100 µM [1] [%]
33 | 0.064 | 4.94 |  | NC1CCN(Cc2cc3c(-c4cc5ccccc5o4)cncc3cc2Cl)CC1 [Example 250] |  | 
34 | 0.022 | 1.76 |  | CN(c1ccc2cncc(-c3cc4ccccc4o3)c2c1)C1CCC(N)CC1 (centres unmarked) [Example 210] |  | 
35 | 0.76 | 12.4 |  | NC1CCN(Cc2ccc3cncc(-c4ccc5[nH]ccc5c4)c3c2)CC1 [Example 168] |  | 
36 | 1.02 | 4.43 |  | NC1CCN(Cc2ccc3cncc(-c4nc5ccccc5s4)c3c2)CC1 [Example 227, 1-[[4-(1,3-Benzothiazol-2-yl)-6-isoquinolyl]methyl]piperidin-4-amine] |  | 
37 | 0.432 | 5.73 |  | COc1cc(CN2CCC(N)CC2)cc2c(-c3ccccc3)cncc12 [Example 246] |  | 
38 | 0.306 | 8.64 |  | NCc1ccc(-c2cncc3ccc(CN4CCC(N)CC4)cc23)cc1 [Example 183] |  | 
39 | 0.401 | 4.72 |  | N[C@H]1CC[C@H](Oc2ccc3cncc(-c4cc5ccccc5o4)c3c2)CC1 [Example 79, 4-[[4-(Benzofuran-2-yl)-6-isoquinolyl]oxy]cyclohexanamine] |  | 
40 | 0.058 | 1.75 |  | N[C@H]1CC[C@H](Nc2ccc3cncc(-c4cc5ccccc5o4)c3c2)CC1 [Example 148, 4-(Benzofuran-2-yl)-N-(4-(trans)aminocyclohexyl)isoquinolin-6-amine] |  | 
41 | 0.256 | 47.7 |  | N#Cc1cc(CN2CCC(N)CC2)cc2c(-c3ccccc3)cncc12 [Example 307] |  | 
42 | 1.11 | 2.52 |  | Nc1ncc(-c2cccc(Cl)c2)c2cc(CN3CCC(N)CC3)ccc12 [Example 216] |  | 
43 | 0.476 | 11.3 |  | Nc1ncc(-c2ccccc2)c2cc(CN3CCNCC3)ccc12 [Example 91, 4-Phenyl-6-(piperazin-1-ylmethyl)isoquinolin-1-amine] |  | 
44 | 0.266 | 13 |  | NC1CCN(Cc2ccc3cncc(-c4cccc(O)c4)c3c2)CC1 [Example 187] |  | 
45 | 0.465 | 4.7 |  | NC1CCN(Cc2ccc3cncc(-c4ccc5ccccc5c4)c3c2)CC1 [Example 174] |  | 
46 | 0.135 | 2.37 |  | N[C@H]1CC[C@H](Oc2cc(Cl)c3cncc(-c4cc5ccccc5o4)c3c2)CC1 [Example 310] |  | 
47 | 0.302 | 4.74 |  | COc1cc(O[C@H]2CC[C@H](N)CC2)cc2c(-c3cc4ccccc4o3)cncc12 [Example 314, Trans-4-[[4-(Benzofuran-2-yl)-8-methoxy-6-isoquinolyl]oxy]cyclohexanamine] |  | 
48 | 0.159 | 4.87 |  | Nc1ncc(-c2ccccc2)c2cc(CN3CCC(N)CC3)cc(Cl)c12 [Example 257] |  | 
49 | 0.351 | 25 |  | NC1CCCC(NCc2ccc3cncc(-c4ccc(O)cc4)c3c2)C1 (centres unmarked) [Example 38] |  | 
50 |  | 9.88 | 54 | Nc1ncc2ccc(CN3CCC(N)CC3)cc2c1-c1ccccc1 [Example 162, 6-[(4-Amino-1-piperidyl)methyl]-4-phenyl-isoquinolin-3-amine] |  | 
51 | 0.175 | 1.31 |  | COc1cc(O[C@H]2CC[C@H](N)CC2)cc2c(-c3ccccc3)cnc(N)c12 [Example 321] |  | 
52 | 0.145 | 5.76 |  | NC1CCN(Cc2cc(Cl)c3cncc(-c4cccs4)c3c2)CC1 [Example 240] |  | 
53 | 0.161 | 5.09 |  | N[C@@H]1CCC[C@H](Nc2ccc3cncc(-c4cc5ccccc5o4)c3c2)C1 [Example 292] |  | 
54 | 0.285 | 24.3 |  | NC1CCN(Cc2ccc3cncc(-c4ccncc4)c3c2)CC1 [Example 13] |  | 
55 | 0.087 | 2.55 |  | COc1cc(N[C@H]2CC[C@H](N)CC2)cc2c(-c3ccccc3)cncc12 [Example 315] |  | 

From patent US20200031811A1, “SUBSTITUTED MONO- AND POLYAZANAPHTHALENE DERIVATIVES AND THEIR USE” (Basilea Pharmaceutica International AG, priority 2015, published 2020)
